{
  "source": "patent US20110009421A1",
  "about": "“COMPOUND HAVING 6-MEMBERED AROMATIC RING” (TAKEDA PHARMACEUTICAL COMPANY LIMITED, priority 2008, published 2011)",
  "note": "Structures can show the parent of a compound that is named as a salt.",
  "data": [
    {"biological_target": "T1, human GPR52 (Homo sapiens, UniProt Q9Y2T5)", "T1 construct": "expressed in transfected cells; host or cells: CHO (dhfr-) cells", "T1 sequence (Q9Y2T5 whole entry)": "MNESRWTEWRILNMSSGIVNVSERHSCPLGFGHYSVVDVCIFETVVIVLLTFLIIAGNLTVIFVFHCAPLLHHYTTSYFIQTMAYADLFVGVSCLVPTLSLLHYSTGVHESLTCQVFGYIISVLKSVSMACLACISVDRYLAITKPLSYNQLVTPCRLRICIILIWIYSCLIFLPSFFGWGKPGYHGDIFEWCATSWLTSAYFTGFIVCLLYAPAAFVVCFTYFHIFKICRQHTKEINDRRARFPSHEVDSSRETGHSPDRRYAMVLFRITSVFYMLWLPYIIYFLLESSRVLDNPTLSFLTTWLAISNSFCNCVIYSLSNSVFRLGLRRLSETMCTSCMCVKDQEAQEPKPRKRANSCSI", "assay": "Increased intracellular cAMP levels in human GPR52 expression CHO cells (AlphaScreen cAMP assay)", "format": "cell-based", "conditions": "1 μM test compound, 30 min at 37° C., human GPR52 expression CHO (dhfr−) cells; intracellular cAMP level, 100% = 1 μM 3-(6-(2-(3,4-dimethoxyphenyl)ethoxy)pyridin-2-yl)-N-(2-pyrrolidin-1-ylethyl)benzamide, 0% = DMSO", "experimental": "Increased Intracellular cAMP Levels in Human GPR52 Expression CHO Cells\n1×10^4 human GPR52 expression CHO (dhfr−) cells were incubated with 1 μM test compound for 30 min at 37° C. in 30 μL assay buffer (HBSS (containing Ca^2+ and Mg^2+), 0.5% BSA, 100 μM IBMX, 100 μM Ro 20-1724, 5 mM HEPES (pH 7.55)) using an OptiPlate-384 (by PerkinElmer). The intracellular cAMP level was then assayed with an EnVision (by PerkinElmer) according to the protocol of the AlphaScreen cAMP Assay Kit (by PerkinElmer). The GPR52 agonist activity was calculated, assuming the intracellular cAMP level to be 100% in the presence of 1 μM of 3-(6-(2-(3,4-dimethoxyphenyl)ethoxy)pyridin-2-yl)-N-(2-pyrrolidin-1-ylethyl)benzamide obtained in Reference Example 39 and assuming the intracellular cAMP level to be 0% when DMSO was added instead of test compound.", "units": {"GPR52 agonist activity (%)": "%"}, "values": [
      {"smiles": "N#CCCNC(=O)c1cccc(-c2cccc(Oc3cncc(Cl)c3)n2)c1", "note": "[Working Example 134, 3-(6-((5-Chloropyridin-3-yl)oxy)pyridin-2-yl)-N-(2-cyanoethyl)benzamide]", "GPR52 agonist activity (%)": 48},
      {"smiles": "O=C(NCCN1CCCC1)c1cccc(-c2ccnc(NCCc3cccc(C(F)(F)F)c3)n2)c1", "note": "[Working Example 146, N-(2-pyrrolidin-1-ylethyl)-3-[2-({2-[3-(trifluoromethyl)phenyl]ethyl}amino)pyrimidin-4-yl]benzamide]", "GPR52 agonist activity (%)": 135},
      {"smiles": "COc1cccc(CCOc2cccc(-c3cccc(C(=O)NCCO)c3)n2)c1", "note": "[Working Example 69, N-(2-hydroxyethyl)-3-(6-(2-(3-methoxyphenyl)ethoxy)pyridin-2-yl)benzamide]", "GPR52 agonist activity (%)": 65},
      {"smiles": "N#CCCNC(=O)c1cccc(-c2cccc(Oc3cccc(Cl)c3)n2)c1", "note": "[Working Example 125, 3-(6-(3-Chlorophenoxy)pyridin-2-yl)-N-(2-cyanoethyl)benzamide]", "GPR52 agonist activity (%)": 55},
      {"smiles": "COc1ccc(CCOc2cccc(-c3cccc(C(=O)NCCNc4ccccc4)c3)n2)cc1OC", "note": "[Working Example 208]", "GPR52 agonist activity (%)": 67},
      {"smiles": "COc1ccc(CCOc2cccc(-c3cccc(NC(=O)Cn4ccnc4)c3)n2)cc1OC", "note": "[Working Example 302]", "GPR52 agonist activity (%)": 57},
      {"smiles": "COc1ccc(CCNc2nccc(-c3cccc(C(=O)N(C)CCCN(C)C)c3)n2)cc1OC", "note": "[Working Example 37, 3-(2-(2-(3,4-Dimethoxyphenyl)ethylamino)pyrimidin-4-yl)-N-(3-dimethylaminopropyl)-N-methylbenzamide hydrochloride]", "GPR52 agonist activity (%)": 92},
      {"smiles": "C[C@H](CC#N)NC(=O)c1cccc(-c2cccc(Oc3cc(Cl)cc(Cl)c3)n2)c1", "note": "[Working Example 94, N-((1R)-2-Cyano-1-methylethyl)-3-(6-(3,5-dichlorophenoxy)pyridin-2-yl)benzamide]", "GPR52 agonist activity (%)": 58},
      {"smiles": "N#CCCNC(=O)c1cccc(-c2cccc(Oc3cc(Cl)cc(Cl)c3)n2)c1", "note": "[Working Example 121, N-(2-Cyanoethyl)-3-(6-(3,5-dichlorophenoxy)pyridin-2-yl)benzamide]", "GPR52 agonist activity (%)": 51},
      {"smiles": "COc1ccc(CCNc2nccc(-c3cccc(NC(=O)CC4CCCN4)c3)n2)cc1OC", "note": "(stereo not drawn) [Working Example 25, N-(3-(2-((2-(3,4-Dimethoxyphenyl)ethyl)amino)pyrimidin-4-yl)phenyl)-2-pyrrolidin-2-yl acetamide hydrochloride]", "GPR52 agonist activity (%)": 71},
      {"smiles": "CNC(=O)c1cccc(-c2cccc(OCCc3ccc(OC)c(OC)c3)n2)c1", "note": "[Working Example 167]", "GPR52 agonist activity (%)": 68},
      {"smiles": "COc1ccc(CCNc2nccc(-c3cccc(C(=O)NCCN4CCCC4)c3)n2)cc1OC", "note": "[Working Example 141]", "GPR52 agonist activity (%)": 113},
      {"smiles": "COc1ccc(CCOc2cccc(-c3cccc(C(=O)NCCN4CCCC4)c3)c2)cc1OC", "note": "[Working Example 40, 3′-(2-(3,4-Dimethoxyphenyl)ethoxy)-N-(2-pyrrolidin-1-ylethyl)biphenyl-3-carboxamide]", "GPR52 agonist activity (%)": 87},
      {"smiles": "COc1ccc(CCOc2nccc(-c3cccc(C(=O)NCCN4CCCC4)c3)n2)cc1OC", "note": "[Working Example 46, 3-(2-(2-(3,4-Dimethoxyphenyl)ethoxy)pyrimidin-4-yl)-N-(2-pyrrolidin-1-ylethyl)benzamide]", "GPR52 agonist activity (%)": 99},
      {"smiles": "COc1ccc(CCOc2cccc(-c3cccc(C(=O)NCCCn4ccnc4)c3)n2)cc1OC", "note": "[Working Example 203]", "GPR52 agonist activity (%)": 97},
      {"smiles": "O=C(NCCN1CCCC1)c1cccc(-c2ccnc(NCCc3ccc(Cl)c(F)c3)n2)c1", "note": "[Working Example 165]", "GPR52 agonist activity (%)": 68},
      {"smiles": "O=C(NCCN1CCCC1)c1cccc(-c2cccc(Oc3cccc(Cl)c3Cl)n2)c1", "note": "[Working Example 83, 3-(6-(2,3-Dichlorophenoxy)pyridin-2-yl)-N-(2-pyrrolidin-1-ylethyl)benzamide]", "GPR52 agonist activity (%)": 97},
      {"smiles": "COc1ccc(CCOc2cccc(-c3cccc(C(=O)NCCN4CCCC4)c3)n2)cc1OC", "note": "[Working Example 39, 3-(6-(2-(3,4-dimethoxyphenyl)ethoxy)pyridin-2-yl)-N-(2-pyrrolidin-1-ylethyl)benzamide]", "GPR52 agonist activity (%)": 106}
    ]}
  ]
}
